Columns and labels:
Pak1 = Pak1 (Homo sapiens, UniProt Q13153); assay: Pak1 inhibition in vitro; format: biochemical; details: read-out: IC50 values towards Pak1
RSK4 = biological target: T1, RSK4 (Homo sapiens, UniProt Q9UK32); assay: Kinase selectivity, Z'-LYTE; format: biochemical
T1 construct: purchased Invitrogen (Life Technologies) SelectScreen Z'-LYTE
Outline: (§1)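 Selectivity was profiled by a fluorescence-based coupled-enzyme assay in which phosphorylated and non-phosphorylated peptides differ in sensitivity to proteolytic cleavage. Recombinant kinases were used, each with an assay mixture optimized for that kinase.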

RSK3 = biological target: T2, RSK3 (Homo sapiens, UniProt Q15349); assay: Kinase selectivity, Z'-LYTE; format: biochemical
T2 construct: purchased Invitrogen (Life Technologies) SelectScreen Z'-LYTE
Outline: as §1

KT21 cells = assay: Immunoblot of signaling pathways; format: cell-based
Experimental: Protein concentration was determined, and equal amount of total proteins were separated by SDS-PAGE. Antibodies used included those for Pak1 (2602), Pak2 (2608), Pak3 (2609), Pak4 (3242), phospho-Pak4-6 (3241), Mek1 (9122), Erk (9102), phospho-Erk1/2 (pThr202/pTyr204; 9101), Akt (9272), phospho-Akt (pThr308; 9275), S6 (2217), phospho-S6 (pSer235/pSer236; 4857), phospho-β-Catenin (pSer675; 4176), and cyclin D1 (2978) from Cell Signaling Technology; β-Catenin (610154) from BD Transduction Laboratories; and phospho-Pak (Ser141; 44940G) and phospho-Mek (Ser298; 44460G) from Invitrogen. GAPDH and β-actin were used as loading control.

T1 sequence (Q9UK32 whole entry): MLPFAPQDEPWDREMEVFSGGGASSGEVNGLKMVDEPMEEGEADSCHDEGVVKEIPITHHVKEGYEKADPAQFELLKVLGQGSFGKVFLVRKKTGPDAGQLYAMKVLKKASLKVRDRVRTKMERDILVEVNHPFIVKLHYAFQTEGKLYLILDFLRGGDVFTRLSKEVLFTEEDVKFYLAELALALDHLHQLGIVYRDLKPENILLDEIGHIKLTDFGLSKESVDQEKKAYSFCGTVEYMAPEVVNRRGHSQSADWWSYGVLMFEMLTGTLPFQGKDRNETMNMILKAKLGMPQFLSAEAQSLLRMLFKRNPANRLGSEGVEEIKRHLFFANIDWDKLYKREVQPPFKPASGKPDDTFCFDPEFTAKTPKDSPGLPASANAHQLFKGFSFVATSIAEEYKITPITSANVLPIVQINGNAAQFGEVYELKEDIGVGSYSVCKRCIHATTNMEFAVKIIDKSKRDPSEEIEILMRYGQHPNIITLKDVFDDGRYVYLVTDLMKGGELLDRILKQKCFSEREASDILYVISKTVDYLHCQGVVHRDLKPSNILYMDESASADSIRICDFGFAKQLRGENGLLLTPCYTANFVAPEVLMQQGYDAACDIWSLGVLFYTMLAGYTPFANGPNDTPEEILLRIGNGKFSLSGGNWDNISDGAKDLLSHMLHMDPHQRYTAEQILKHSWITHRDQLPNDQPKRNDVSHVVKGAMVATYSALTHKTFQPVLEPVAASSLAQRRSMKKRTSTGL
Sequence of Pak1 (Q13153 whole entry): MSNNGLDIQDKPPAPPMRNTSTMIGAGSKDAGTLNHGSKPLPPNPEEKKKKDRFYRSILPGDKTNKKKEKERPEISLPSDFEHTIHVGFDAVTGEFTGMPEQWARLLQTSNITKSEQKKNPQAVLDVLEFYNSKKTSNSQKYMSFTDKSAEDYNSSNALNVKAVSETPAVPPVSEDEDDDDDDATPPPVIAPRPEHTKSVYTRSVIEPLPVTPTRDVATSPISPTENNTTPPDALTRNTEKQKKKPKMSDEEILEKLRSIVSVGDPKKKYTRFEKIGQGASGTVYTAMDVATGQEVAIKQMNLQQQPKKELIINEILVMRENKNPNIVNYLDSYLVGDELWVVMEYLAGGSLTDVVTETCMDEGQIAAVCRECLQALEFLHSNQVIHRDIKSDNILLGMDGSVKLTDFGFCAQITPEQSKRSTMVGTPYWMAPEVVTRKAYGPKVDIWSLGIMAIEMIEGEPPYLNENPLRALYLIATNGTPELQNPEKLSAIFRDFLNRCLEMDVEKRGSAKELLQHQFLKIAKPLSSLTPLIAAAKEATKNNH
T2 sequence (Q15349 whole entry): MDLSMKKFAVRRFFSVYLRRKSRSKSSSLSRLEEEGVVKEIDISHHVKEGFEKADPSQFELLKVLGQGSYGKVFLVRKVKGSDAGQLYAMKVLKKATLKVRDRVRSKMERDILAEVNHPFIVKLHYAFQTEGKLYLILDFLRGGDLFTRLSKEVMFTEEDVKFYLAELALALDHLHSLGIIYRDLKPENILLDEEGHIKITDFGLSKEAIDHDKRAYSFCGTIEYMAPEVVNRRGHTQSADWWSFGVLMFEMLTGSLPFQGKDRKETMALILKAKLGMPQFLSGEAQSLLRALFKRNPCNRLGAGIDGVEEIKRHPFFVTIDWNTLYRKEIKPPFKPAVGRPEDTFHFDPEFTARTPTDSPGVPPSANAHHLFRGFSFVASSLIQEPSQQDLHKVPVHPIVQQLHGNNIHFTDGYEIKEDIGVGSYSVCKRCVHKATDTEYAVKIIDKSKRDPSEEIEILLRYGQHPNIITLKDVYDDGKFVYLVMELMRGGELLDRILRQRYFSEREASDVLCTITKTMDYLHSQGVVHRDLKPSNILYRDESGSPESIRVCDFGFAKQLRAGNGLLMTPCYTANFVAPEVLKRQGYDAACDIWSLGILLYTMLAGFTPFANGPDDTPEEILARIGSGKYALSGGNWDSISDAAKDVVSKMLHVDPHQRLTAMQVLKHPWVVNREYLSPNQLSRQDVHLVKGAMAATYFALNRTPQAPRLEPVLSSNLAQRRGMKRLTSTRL

CCn1c(=O)c(-c2ccc(-c3noc(C)n3)cc2Cl)cc2cnc(Nc3ccc(C4CCN(C)CC4)cc3)nc21 [Frax716]
IC50 (Pak1): 2 nM

CCn1c(=O)c(-c2ccc(-c3cncc(C)n3)cc2Cl)cc2cnc(NCCC3CCN(C)CC3)nc21 [Frax1036]
% inhibition of activity (RSK4): 9%
% inhibition of activity (RSK3): 26%

Cc1nc(Nc2[nH]nc3c2CN(C(=O)N[C@H](CN(C)C)c2ccccc2)C3(C)C)c2sccc2n1 [PF3758309, reference compound]
total and phospho-protein levels of β-catenin (KT21 cells): only reduction on phosphorylation status

Source: article PMC4385830, “Group I Paks as therapeutic targets in NF2-deficient meningioma” (Oncotarget, 2015)
